Measurements reported in PubChem BioAssay (NCI).
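Cells were grown in 96-well plates and exposed to each compound for 48 hours at five concentrations; endpoints were interpolated linearly between bracketing concentrations, or set to the highest concentration if not reached. GI50: concentration for 50% inhibition of growth. TGI marks complete inhibition of growth.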

How the values were obtained:
Assay in all cases: NCI-60 cell line screen, 48 h
786-0 renal = tested on: 786-0 renal
A498 renal = tested on: A498 renal
A549 NSCLC = tested on: A549 NSCLC
ACHN renal = tested on: ACHN renal
BT-549 breast = tested on: BT-549 breast
CAKI-1 renal = tested on: CAKI-1 renal
CCRF-CEM leukemia = tested on: CCRF-CEM leukemia
COLO 205 colon = tested on: COLO 205 colon
DU-145 prostate = tested on: DU-145 prostate
EKVX NSCLC = tested on: EKVX NSCLC
HCC-2998 colon = tested on: HCC-2998 colon
HCT-116 colon = tested on: HCT-116 colon
HCT-15 colon = tested on: HCT-15 colon
HL-60(TB) leukemia = tested on: HL-60(TB) leukemia
HOP-62 NSCLC = tested on: HOP-62 NSCLC
HOP-92 NSCLC = tested on: HOP-92 NSCLC
HS 578T breast = tested on: HS 578T breast
HT29 colon = tested on: HT29 colon
IGROV1 ovarian = tested on: IGROV1 ovarian
K-562 leukemia = tested on: K-562 leukemia
KM12 colon = tested on: KM12 colon
LOX IMVI melanoma = tested on: LOX IMVI melanoma
MALME-3M melanoma = tested on: MALME-3M melanoma
MCF7 breast = tested on: MCF7 breast
MDA-MB-231 breast = tested on: MDA-MB-231 breast
MDA-MB-435 = tested on: MDA-MB-435
MOLT-4 leukemia = tested on: MOLT-4 leukemia
NCI-H23 lung = tested on: NCI-H23 lung

## O=C(OCc1nc2nc(Cl)nc(N3CCOCC3)c2[nH]1)n1ccnc1
786-0 renal
  GI50: 1.84 µM
  TGI: 3.98 µM
A498 renal
  GI50: 2.9 µM
  TGI: 9.83 µM
A549 NSCLC
  GI50: 3.24 µM
  TGI: 12.9 µM
ACHN renal
  GI50: 1.12 µM
  TGI: 2.32 µM
BT-549 breast
  GI50: 2.49 µM
  TGI: 9.49 µM
CAKI-1 renal
  GI50: 1.21 µM
  TGI: 2.84 µM
CCRF-CEM leukemia
  GI50: 1.17 µM
  TGI: 6.92 µM
COLO 205 colon
  GI50: 1.65 µM
  TGI: 3.84 µM
DU-145 prostate
  GI50: 1.59 µM
  TGI: 3.18 µM
EKVX NSCLC
  GI50: 2.04 µM
  TGI: 4.66 µM
HCC-2998 colon
  GI50: 2.22 µM
  TGI: 4.16 µM
HCT-116 colon
  GI50: 0.65 µM
  TGI: 3.29 µM
HCT-15 colon
  GI50: 2.06 µM
  TGI: 6.45 µM
HL-60(TB) leukemia
  GI50: 1.51 µM
  TGI: 4.55 µM
HOP-62 NSCLC
  GI50: 1.64 µM
  TGI: 4.78 µM
HOP-92 NSCLC
  GI50: 1.17 µM
  TGI: 3.15 µM
HS 578T breast
  GI50: 1.96 µM
  TGI: 5.37 µM
HT29 colon
  GI50: 1.59 µM
  TGI: 4.33 µM
IGROV1 ovarian
  GI50: 1.32 µM
  TGI: 2.64 µM
K-562 leukemia
  GI50: 1.68 µM
  TGI: 8.1 µM
KM12 colon
  GI50: 1.88 µM
  TGI: 4.72 µM
LOX IMVI melanoma
  GI50: 0.72 µM
  TGI: 2.17 µM
MALME-3M melanoma
  GI50: 1.72 µM
  TGI: 3.22 µM
MCF7 breast
  GI50: 1.84 µM
  TGI: 4.91 µM
MDA-MB-231 breast
  GI50: 1.63 µM
  TGI: 3.38 µM
MDA-MB-435
  GI50: 1.32 µM
  TGI: 2.75 µM
MOLT-4 leukemia
  GI50: 2.29 µM
  TGI: 6.47 µM
NCI-H23 lung
  GI50: 2.41 µM
  TGI: 5.69 µM
